Test results as given in US20070293486A1, “Alpha-Keto Carbonyl Calpain Inhibitors” (SANTHERA PHARMACEUTICALS (SCHWEIZ) AG, priority 2004, published 2007).

Tests used:
[1] = system: utrophin protein levels in human DMD myotubes; experiment: Utrophin Expression Assay in Human Myotubes; assay type: cell-based; details: 50 nM test compound
Description: Utrophin induction was determined by a method which was similar to a method of 1. Courdier-Fruh et al., Neuromuscular Disord., 2002, 12, S95-S104. Primary human muscle cell cultures were prepared from muscle biopsies taken during orthopedic surgery from Duchenne patients (provided by the Association Francaise contre les Myopathies). Cultures were prepared and maintained according to standard protocols. Induction of utrophin expression in human DMD myotubes was assayed at 50 nM or 500 nM of test compound added in differentiation medium. Normalized utrophin protein levels are determined after 56 d of incubation by cell-based ELISA with a mouse monoclonal antibody to the aminoterminal portion of utrophin (NCL-DRP2, Novocastra Laboratories). For calibration, the cell density and differentiation was determined by absorbance measurements of the total dehydrogenase enzyme activity in each well using the calorimetric CellTiter 96®AQ One Solution Reagent Proliferation Assay (Promega) according to the manufacturer's recommendation. Subsequently, cells were fixed, washed, permeabilized with 0.5% (v/v) Triton X-100 and unspecific antibody binding-sites blocked by standard procedures. Utrophin protein levels were determined immunologically with utrophin-specific primary antibody and with an appropriate peroxidase-coupled secondary antibody (Jackson ImmunoResearch Laboratories) using QuantaBlu™ Fluorogenic Peroxidase Substrate Kit (Pierce) for detection. Fluorescence measurements were carried out with a multilabel counter (Wallac) at λex=355 nm and at λem=460 nm. The primary readout of this signal is presented in arbitrary units. For calibration, the arbitrary units representing the relative utrophin protein content of each well was divided by the corresponding cell-titer absorbance value to correct for cell density. For comparison between experiments, the cell-titer corrected readout for utrophin protein content in each well was expressed in percent of solvent treated control cultures (set to 100%), i.e. data are % utrophin protein levels compared to DMSO solvent (N=4).

[2] = system: cellular calpains in C2C12 myoblasts; experiment: Calpain Inhibition Assay in C2C12 Myoblasts; assay type: cell-based; details: read-out: Calp I IC50 Myoblast
Description: This assay is aimed at monitoring the ability of the substance to inhibit cellular calpains. C2C12 myoblasts are grown in 96-well plates in growth medium (DMEM, 20% foetal calf serum) until they reach confluency. The growth medium is then replaced by fusion medium (DMEM, 5% horse serum). 24 hours later the fusion medium is replaced by fusion medium containing the test substances dissolved in 1 μl DMSO. After 2 hours of incubation at 37° C. the cells are loaded with the calpain fluorogenic substrate Suc-Leu-Tyr-AMC at 400 μM in 50 μl of a reaction buffer containing 135 mM NaCl; 5 mM KCl; 4 mM CaCl2; 1 mM MgCl2; 10 mM Glucose; 10 mM HEPES pH 7.25 for 20 min at room temperature. The calcium influx, necessary to activate the cellular calpains, is evoked by the addition of 50 μl reaction buffer containing 20 μM of the calcium ionophore Br-A-23187 (Molecular Probes). The fluorescence of the cleavage product AMC is measured as described above during 60 min at 37° C. at intervals of 1 min. The IC50 values are determined as described above. Comparison of the IC50 determined in the enzymatic calpain inhibition assay to the IC50 determined in the C2C12 myoblasts calpain inhibition assay, allows to evaluate the cellular uptake or the membrane permeability of the substance.

20S Proteasome = molecular target: T1, 20S Proteasome (Oryctolagus cuniculus, UniProt G1T4Q9); experiment: 20S Proteasome Assay; assay type: biochemical; details: Rabbit, read-out: 20S Prot IC50
T1 sequence (G1T4Q9 1-263): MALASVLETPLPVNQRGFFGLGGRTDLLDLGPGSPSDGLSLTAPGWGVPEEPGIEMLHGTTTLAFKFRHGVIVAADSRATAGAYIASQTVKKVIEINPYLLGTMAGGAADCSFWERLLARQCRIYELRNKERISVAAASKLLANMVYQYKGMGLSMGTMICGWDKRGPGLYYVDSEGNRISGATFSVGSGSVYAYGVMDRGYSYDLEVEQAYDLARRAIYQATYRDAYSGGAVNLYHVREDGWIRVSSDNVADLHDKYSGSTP
Description: 25 μl of a reaction buffer containing 400 μM of the fluorogenic substrate Suc-Leu-Leu-Val-Tyr-AMC (Bachem) are dispensed per well of a white microtiter plate. Test compounds dissolved in 0.5 μl DMSO are added. To start the reaction; 25 μl of reaction buffer containing 35 ng of enzyme (20S Proteasome, Rabbit, Calbiochem) are added. The increase in fluorescence (excitation at 360 nm; emission at 440 nm) is measured over 30 min at 30° C. at 30″. The IC50's are then determined from the slopes.

human μ-calpain = molecular target: T2, human μ-calpain (Homo sapiens, UniProt P07384); experiment: Enzymatic Calpain Inhibition Assay; assay type: biochemical; details: enzymatic calpain I inhibition; read-out: Calp I IC50
T2 construct: purchased Calbiochem
T2 sequence (P07384 1-714): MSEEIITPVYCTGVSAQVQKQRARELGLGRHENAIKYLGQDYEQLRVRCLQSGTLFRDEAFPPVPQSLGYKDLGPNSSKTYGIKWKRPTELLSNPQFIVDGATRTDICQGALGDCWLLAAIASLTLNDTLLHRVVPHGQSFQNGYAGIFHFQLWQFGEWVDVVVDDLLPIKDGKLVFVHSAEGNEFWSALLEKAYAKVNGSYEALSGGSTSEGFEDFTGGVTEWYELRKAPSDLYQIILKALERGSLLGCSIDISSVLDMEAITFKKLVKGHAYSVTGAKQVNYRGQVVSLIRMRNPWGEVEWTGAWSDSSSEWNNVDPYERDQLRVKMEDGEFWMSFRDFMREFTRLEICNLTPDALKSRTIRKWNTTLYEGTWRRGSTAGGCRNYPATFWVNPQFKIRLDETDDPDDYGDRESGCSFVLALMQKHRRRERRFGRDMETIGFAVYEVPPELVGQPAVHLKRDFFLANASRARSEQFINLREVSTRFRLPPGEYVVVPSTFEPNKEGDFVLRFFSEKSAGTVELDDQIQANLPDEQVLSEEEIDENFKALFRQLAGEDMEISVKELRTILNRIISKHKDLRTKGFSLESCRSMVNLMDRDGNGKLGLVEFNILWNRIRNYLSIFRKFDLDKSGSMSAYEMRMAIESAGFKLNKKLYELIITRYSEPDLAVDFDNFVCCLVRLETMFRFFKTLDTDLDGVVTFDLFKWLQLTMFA
T2 sequence (P04632 1-268 partner): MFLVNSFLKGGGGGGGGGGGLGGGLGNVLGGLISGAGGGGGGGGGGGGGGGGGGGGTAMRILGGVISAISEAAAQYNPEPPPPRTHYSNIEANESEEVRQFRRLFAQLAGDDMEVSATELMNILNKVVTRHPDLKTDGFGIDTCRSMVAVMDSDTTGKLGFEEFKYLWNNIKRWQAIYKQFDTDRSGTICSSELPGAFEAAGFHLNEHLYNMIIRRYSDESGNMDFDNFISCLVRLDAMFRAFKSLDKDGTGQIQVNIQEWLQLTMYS
Description: The Ki value was also determined in some cases. These criteria were used to measure the inhibitory effect of the compounds (I) on calpain I, calpain II and cathepsin B.
The inhibitory properties of calpain inhibitors are tested in 100 μl of a buffer containing 100 mM imidazole pH 7.5, 5 mM L-Cystein-HCl, 5 mM CaCl2, 250 μM of the calpain fluorogenic substrate Suc-Leu-Tyr-AMC (Sigma) (Sasaki et al., J. Biol. Chem., 1984, 259, 12489-12949) dissolved in 2.5 μl DMSO and 0.5 μg of human μ-calpain (Calbiochem). The inhibitors dissolved in 1 μl DMSO are added to the reaction buffer. The fluorescence of the cleavage product 7-amino-4-methylcoumarin (AMC) is followed in a SPECTRAmax GEMINI XS (Molecular Device) fluorimeter at λex=360 nm and λem=440 nm at 30° C. during 30 min at intervals of 30 sec in 96-well plates (Greiner). The initial reaction velocity at different inhibitor concentrations is plotted against the inhibitor concentration and the IC50 values determined graphically.

[3] = system: experimental muscular dystrophy in hamster; details: Journal of Pharmacobiodynamics, 1987, 10, 678; cited from earlier work

| SMILES | UTR Induction @50 nM [1] [%] | IC50 [2] [nM] | IC50 (20S Proteasome) [nM] | IC50 (human μ-calpain) [nM] | melting point [°C] | life-prolonging effect in experimental muscular dystrophy [3] |
| --- | --- | --- | --- | --- | --- | --- |
| CCNC(=O)C(=O)C(Cc1ccc(OC)cc1)NC(=O)C(NC(=O)C(Cc1csc2ccccc12)NC(=O)CCCCC1CCS[S+]1[O-])C(C)C (stereo not shown) [Example 606] | 151 | 28 | 10 | 16 | 190 to 192 | – |
| CCNC(=O)C(=O)C(Cc1ccccc1)NC(=O)C(NC(=O)C(Cc1cccc2ccccc12)NC(=O)CCCCC1CCSS1)C(C)C (stereo not shown) [Example 735] | 134 | 20 | 27 | 35 | 220 | – |
| CCNC(=O)C(=O)[C@H](Cc1ccc(Cl)cc1)NC(=O)[C@@H](NC(=O)[C@H](Cc1ccccc1)NC(=O)CCCCC1CCSS1)C(C)C (stereo partly shown) [Example 1] | – | 200 | – | 45 | – | – |
| CCOC(=O)[C@H]1O[C@@H]1C(=O)N[C@@H](CC(C)C)C(=O)NCCC(C)C [Example E-64-d] | – | – | – | – | – | life-prolonging effect |
